Literature values in patent publication US6734210B2, “Therapeutically improved salts of azelaic acid” (priority 2000, dated 2004).

solubility in cosmetic oils (cosmetic oils): little or no solubility
maximum azelaic acid content of a water solution (water): about 0.24 % by weight (w/w)
SMILES: O=C(O)CCCCCCCC(=O)O [azelaic acid]
